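Step 1: Grow cells in 96-well plates. Step 2: Expose to compound for 48 hours at 5 concentrations. Step 3: Interpolate endpoints linearly; if unreached, use highest concentration. GI50 is the concentration that inhibits growth by half. Definition used: TGI = concentration required for complete inhibition of growth.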
Key:
Assay in all cases: NCI-60 cell line screen, 48 h
PC-3 prostate = test system: PC-3 prostate
COLO 205 colon = test system: COLO 205 colon
EKVX NSCLC = test system: EKVX NSCLC
RPMI-8226 leukemia = test system: RPMI-8226 leukemia
MDA-N = test system: MDA-N
UACC-62 melanoma = test system: UACC-62 melanoma
MALME-3M melanoma = test system: MALME-3M melanoma
M14 melanoma = test system: M14 melanoma
HCT-15 colon = test system: HCT-15 colon
KM12 colon = test system: KM12 colon
CAKI-1 renal = test system: CAKI-1 renal
HT29 colon = test system: HT29 colon
NCI-H226 lung = test system: NCI-H226 lung
HCT-116 colon = test system: HCT-116 colon
UACC-257 melanoma = test system: UACC-257 melanoma
MCF7 breast = test system: MCF7 breast
MDA-MB-435 = test system: MDA-MB-435
HL-60(TB) leukemia = test system: HL-60(TB) leukemia
SF-539 CNS = test system: SF-539 CNS
OVCAR-3 ovarian = test system: OVCAR-3 ovarian
HOP-92 NSCLC = test system: HOP-92 NSCLC
SF-268 CNS = test system: SF-268 CNS
UO-31 renal = test system: UO-31 renal
HS 578T breast = test system: HS 578T breast
LOX IMVI melanoma = test system: LOX IMVI melanoma
A498 renal = test system: A498 renal
OVCAR-5 ovarian = test system: OVCAR-5 ovarian
RXF 393 renal = test system: RXF 393 renal
DU-145 prostate = test system: DU-145 prostate
BT-549 breast = test system: BT-549 breast
CCRF-CEM leukemia = test system: CCRF-CEM leukemia
SF-295 CNS = test system: SF-295 CNS
786-0 renal = test system: 786-0 renal
A549 NSCLC = test system: A549 NSCLC
NCI-H23 lung = test system: NCI-H23 lung
SNB-75 CNS = test system: SNB-75 CNS
SNB-19 CNS = test system: SNB-19 CNS
OVCAR-8 ovarian = test system: OVCAR-8 ovarian
SK-MEL-5 melanoma = test system: SK-MEL-5 melanoma
K-562 leukemia = test system: K-562 leukemia
SK-OV-3 ovarian = test system: SK-OV-3 ovarian
ACHN renal = test system: ACHN renal
MDA-MB-231 breast = test system: MDA-MB-231 breast
NCI-H522 lung = test system: NCI-H522 lung
IGROV1 ovarian = test system: IGROV1 ovarian
HOP-62 NSCLC = test system: HOP-62 NSCLC
SR leukemia = test system: SR leukemia
SK-MEL-2 melanoma = test system: SK-MEL-2 melanoma
HCC-2998 colon = test system: HCC-2998 colon
SN12C renal = test system: SN12C renal
MOLT-4 leukemia = test system: MOLT-4 leukemia
TK-10 renal = test system: TK-10 renal
NCI/ADR-RES ovarian = test system: NCI/ADR-RES ovarian
T-47D breast = test system: T-47D breast
U251 CNS = test system: U251 CNS
SW-620 colon = test system: SW-620 colon
SK-MEL-28 melanoma = test system: SK-MEL-28 melanoma
OVCAR-4 ovarian = test system: OVCAR-4 ovarian
NCI-H460 lung = test system: NCI-H460 lung

## CNC(=S)/C(C#N)=C(\N)N1CCN(C)CC1
PC-3 prostate
  TGI: > 100 µM
COLO 205 colon
  TGI: > 100 µM
EKVX NSCLC
  TGI: > 100 µM
RPMI-8226 leukemia
  TGI: > 100 µM
MDA-N
  TGI: > 100 µM
UACC-62 melanoma
  TGI: > 100 µM
MALME-3M melanoma
  TGI: > 100 µM
M14 melanoma
  TGI: > 100 µM
HCT-15 colon
  TGI: > 100 µM
KM12 colon
  TGI: > 100 µM
CAKI-1 renal
  TGI: > 100 µM
HT29 colon
  TGI: > 100 µM
NCI-H226 lung
  TGI: > 100 µM
HCT-116 colon
  TGI: > 100 µM
UACC-257 melanoma
  TGI: > 100 µM
MCF7 breast
  TGI: > 100 µM
MDA-MB-435
  TGI: > 100 µM
HL-60(TB) leukemia
  TGI: > 100 µM
SF-539 CNS
  TGI: > 100 µM
OVCAR-3 ovarian
  TGI: > 100 µM
HOP-92 NSCLC
  TGI: > 100 µM
SF-268 CNS
  TGI: > 100 µM
UO-31 renal
  TGI: > 100 µM
HS 578T breast
  TGI: > 100 µM
LOX IMVI melanoma
  TGI: > 100 µM
A498 renal
  TGI: > 100 µM
OVCAR-5 ovarian
  TGI: > 100 µM
RXF 393 renal
  TGI: > 100 µM
DU-145 prostate
  TGI: > 100 µM
BT-549 breast
  TGI: > 100 µM
CCRF-CEM leukemia
  TGI: > 100 µM
SF-295 CNS
  TGI: > 100 µM
786-0 renal
  TGI: > 100 µM
A549 NSCLC
  TGI: > 100 µM
NCI-H23 lung
  TGI: > 100 µM
SNB-75 CNS
  TGI: > 100 µM
SNB-19 CNS
  TGI: > 100 µM
OVCAR-8 ovarian
  TGI: > 100 µM
SK-MEL-5 melanoma
  TGI: > 100 µM
K-562 leukemia
  TGI: > 100 µM
SK-OV-3 ovarian
  TGI: > 100 µM
ACHN renal
  TGI: > 100 µM
MDA-MB-231 breast
  TGI: > 100 µM
NCI-H522 lung
  TGI: > 100 µM
IGROV1 ovarian
  TGI: > 100 µM
HOP-62 NSCLC
  TGI: > 100 µM
SR leukemia
  TGI: > 100 µM
SK-MEL-2 melanoma
  TGI: > 100 µM
HCC-2998 colon
  TGI: > 100 µM
SN12C renal
  TGI: > 100 µM
MOLT-4 leukemia
  TGI: > 100 µM
TK-10 renal
  TGI: > 100 µM
NCI/ADR-RES ovarian
  TGI: > 100 µM
T-47D breast
  TGI: > 100 µM
U251 CNS
  TGI: > 100 µM
SW-620 colon
  TGI: > 100 µM

## CCCCOC(=O)CC(CC(=O)OCCCC)(OC(C)=O)C(=O)OCCCC
SK-MEL-28 melanoma
  TGI: > 200 µM
PC-3 prostate
  GI50: 86.5 µM
  TGI: > 200 µM
COLO 205 colon
  TGI: > 200 µM
EKVX NSCLC
  TGI: > 200 µM
RPMI-8226 leukemia
  GI50: 29.2 µM
  TGI: 123 µM
MDA-N
  TGI: > 200 µM
UACC-62 melanoma
  TGI: > 200 µM
MALME-3M melanoma
  TGI: > 200 µM
M14 melanoma
  TGI: > 200 µM
HCT-15 colon
  TGI: > 200 µM
KM12 colon
  TGI: > 200 µM
CAKI-1 renal
  TGI: > 200 µM
HT29 colon
  GI50: 68.8 µM
  TGI: > 200 µM
NCI-H226 lung
  GI50: 55.6 µM
  TGI: 198 µM
HCT-116 colon
  GI50: 70.9 µM
  TGI: > 200 µM
UACC-257 melanoma
  TGI: > 200 µM
MCF7 breast
  TGI: > 200 µM
MDA-MB-435
  TGI: > 200 µM
HL-60(TB) leukemia
  GI50: 49.1 µM
  TGI: > 179 µM
OVCAR-3 ovarian
  TGI: > 200 µM
HOP-92 NSCLC
  TGI: > 200 µM
SF-268 CNS
  TGI: > 200 µM
UO-31 renal
  TGI: 98.2 µM
HS 578T breast
  TGI: > 200 µM
LOX IMVI melanoma
  GI50: 40.5 µM
  TGI: > 200 µM
A498 renal
  TGI: > 200 µM
OVCAR-5 ovarian
  TGI: > 200 µM
RXF 393 renal
  GI50: 96 µM
  TGI: > 124 µM
DU-145 prostate
  TGI: > 200 µM
BT-549 breast
  TGI: > 200 µM
CCRF-CEM leukemia
  TGI: > 200 µM
SF-295 CNS
  GI50: 54.3 µM
  TGI: > 200 µM
786-0 renal
  TGI: > 200 µM
A549 NSCLC
  TGI: > 200 µM
NCI-H23 lung
  TGI: > 200 µM
SNB-75 CNS
  TGI: 56.4 µM
SNB-19 CNS
  TGI: > 200 µM
OVCAR-8 ovarian
  TGI: > 200 µM
SK-MEL-5 melanoma
  GI50: 28.4 µM
  TGI: > 200 µM
K-562 leukemia
  GI50: 53.2 µM
  TGI: > 200 µM
SK-OV-3 ovarian
  TGI: > 200 µM
ACHN renal
  TGI: > 200 µM
MDA-MB-231 breast
  TGI: > 200 µM
NCI-H522 lung
  TGI: > 200 µM
IGROV1 ovarian
  TGI: > 200 µM
HOP-62 NSCLC
  TGI: > 200 µM
SR leukemia
  GI50: 32.2 µM
  TGI: > 50.7 µM
SK-MEL-2 melanoma
  TGI: > 200 µM
HCC-2998 colon
  TGI: > 200 µM
SN12C renal
  TGI: > 200 µM
MOLT-4 leukemia
  GI50: 24.8 µM
  TGI: > 200 µM
OVCAR-4 ovarian
  GI50: 69.1 µM
  TGI: > 200 µM
TK-10 renal
  TGI: > 200 µM
NCI/ADR-RES ovarian
  GI50: 74.2 µM
  TGI: > 200 µM
T-47D breast
  GI50: 26.4 µM
  TGI: > 200 µM
NCI-H460 lung
  TGI: > 200 µM
U251 CNS
  GI50: 92.6 µM
  TGI: > 200 µM
SW-620 colon
  TGI: > 200 µM

Reference: PubChem BioAssay (NCI)
